Target: T1, SjGRM7 (Schistosoma japonicum, UniProt A0A4Z2D6G5)
T1 construct: gene EWB00_004136; S. mansoni homologue is Smp_128940
T1 sequence (A0A4Z2D6G5 24-1036): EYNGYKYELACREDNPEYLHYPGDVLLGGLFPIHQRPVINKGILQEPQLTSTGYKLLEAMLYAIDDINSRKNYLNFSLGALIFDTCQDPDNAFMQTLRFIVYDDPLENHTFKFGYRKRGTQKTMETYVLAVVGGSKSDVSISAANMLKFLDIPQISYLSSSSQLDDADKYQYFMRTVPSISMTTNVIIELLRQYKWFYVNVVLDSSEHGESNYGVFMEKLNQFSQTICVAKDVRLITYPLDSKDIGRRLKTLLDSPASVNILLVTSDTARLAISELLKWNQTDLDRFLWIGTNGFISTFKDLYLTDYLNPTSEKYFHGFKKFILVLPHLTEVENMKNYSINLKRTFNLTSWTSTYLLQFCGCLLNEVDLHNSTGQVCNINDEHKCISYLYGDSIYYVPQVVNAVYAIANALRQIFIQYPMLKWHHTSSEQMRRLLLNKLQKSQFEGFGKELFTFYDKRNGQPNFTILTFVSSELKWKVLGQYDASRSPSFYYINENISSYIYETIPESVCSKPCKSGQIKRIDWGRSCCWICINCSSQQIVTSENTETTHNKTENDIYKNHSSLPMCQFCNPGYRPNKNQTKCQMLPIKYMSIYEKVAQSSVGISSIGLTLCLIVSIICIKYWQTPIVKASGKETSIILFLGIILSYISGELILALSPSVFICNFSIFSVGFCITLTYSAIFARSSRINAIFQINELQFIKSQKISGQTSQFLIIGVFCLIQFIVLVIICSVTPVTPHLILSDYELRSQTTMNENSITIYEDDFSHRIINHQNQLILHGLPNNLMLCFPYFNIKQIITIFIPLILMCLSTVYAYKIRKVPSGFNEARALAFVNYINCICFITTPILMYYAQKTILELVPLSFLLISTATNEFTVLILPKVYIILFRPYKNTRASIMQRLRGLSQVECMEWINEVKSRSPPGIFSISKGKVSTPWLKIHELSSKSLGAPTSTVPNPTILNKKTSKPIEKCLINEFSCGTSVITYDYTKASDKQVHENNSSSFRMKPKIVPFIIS
Assay: Fluo-4 calcium mobilization in transfected HEK293T cells
Format: cell-based
Settings: agonist; co-expressed G-alpha16; dose series

N[C@@H](CCC(=O)O)C(=O)O [L-glutamate]
Fluo-4 calcium mobilization in transfected HEK293T cells: SjGRM and SjGRM7 responded only to L-glutamate

Source: PMC9750798, “A metabotropic glutamate receptor affects the growth and development of Schistosoma japonicum” (Frontiers in Microbiology, 2022)
